Assay results: article PMC2270722, “Influence of Cocoa Flavanols and Procyanidins on Free Radical-induced Human Erythrocyte Hemolysis” (Clinical and Developmental Immunology, 2005)

Key:
human erythrocytes = experiment: in vitro AAPH-induced erythrocyte hemolysis, percent inhibition by purified flavonoids; format: cell-based; set-up: level of protection compared with ascorbic acid: dose or concentration left out as unconfirmed; settings: for level of protection compared with ascorbic acid: Figure 3; for protection of human erythrocytes from free radical-induced hemolysis at lowest concentration: concentration as low as 2.5 mM; for protection against AAPH-induced erythrocyte hemolysis: concentrations 2.5 to 20 μM, 200 mM AAPH, 3 h
Text: (§1) Influence of cocoa flavanols and procyanidins on free radical-induced human erythrocyte hemolysis QIN YAN ZHU1 , DEREK D. SCHRAMM1 , HEIDRUN B. GROSS1 , ROBERTA R. HOLT1 , SUN H. KIM3 , TOMOKO YAMAGUCHI4 , CATHERINE L. KWIK-URIBE5 , & CARL L. KEEN1,2 1 Department of Nutrition, University of California, One Shields Avenue, Davis, CA 95616-8669, 2 Internal Medicine, University of California, One Shields Avenue, Davis, CA 95616-8669, 3 Department of Food Service Management and Nutrition, Kongju National University, Republic of Korea, 4 Department of Food Science and Nutrition, Nara Women's University, Japan, and 5 Analytical & Applied Sciences, Mars Incorporated, Hackettstown, NJ, USA Abstract Cocoa can be a rich source of antioxidants including the flavan-3-ols, epicatechin and catechin, and their oligomers (procyanidins). While these flavonoids have been reported to reduce the rate of free radical-induced erythrocyte hemolysis in experimental animal models, little is known about their effect on human erythrocyte hemolysis. The major objective of this work was to study the effect of a flavonoid-rich cocoa beverage on the resistance of human erythrocytes to oxidative stress. A second objective was to assess the effects of select purified cocoa flavonoids, epicatechin, catechin, the procyanidin Dimer B2 and one of its major metabolites, 30 -O-methyl epicatechin, on free radical-induced erythrocyte hemolysis in vitro. Peripheral blood was obtained from 8 healthy subjects before and 1, 2, 4 and 8 h after consuming a flavonoid-rich cocoa beverage that provided 0.25 g/kg body weight (BW), 0.375 or 0.50 g/kg BW of cocoa. Plasma flavanol and dimer concentrations were determined for each subject. Erythrocyte hemolysis was evaluated using a controlled peroxidation reaction. Epicatechin, catechin, 30 -O-methyl epicatechin and (-)-epicatechin-(4b . 8)-epicatechin (Dimer B2) were detected in the plasma within 1 h after the consumption of the beverage. […] The duration of the lag time, which reflects the capacity of cells to buffer free radicals, was increased. […] Erythrocytes from subjects consuming flavonoid-rich cocoa show reduced susceptibility to free radical-induced hemolysis p , 0:05. Keywords: Cocoa, flavanol, membrane oxidation, erythrocyte,-catechin, 3 0 -O-methyl epicatechin Introduction Flavonoids are a diverse group of polyphenolic compounds occurring in fruit, vegetables, tea and red wine. Diets rich in these compounds have been associated with a reduced risk for cardiovascular disease (Knekt et al. 2002, Kris-Etherton et al. 2004, Mennen et al. 2004, Morton et al. 2000, Sagara et al. 2004, Sesso et al. 2003). Depending on their processing, cocoa and chocolate can be rich sources of flavonoids, particularly the subclass of oligomeric flavonoids known as procyanidins (Adamson et al. 1999, Sanchez-Rabaneda et al. 2003, Steinberg et al. 2003) (Figure 1). Flavanols and procyanidins isolated from cocoa and chocolate have received considerable attention over the last several years as potential cardiovascular protective agents with putative positive effects on platelet function, blood pressure regulation, nitric oxide production, oxidative defense and the immune system (Heiss et al. 2003, Maron, 2004; Fisher et al. 2003; Pearson et al. 2002, Sadik et al. 2003, Taubert et al. 2003, Wan et al. 2001). ISSN 1740-2522 print/ISSN 1740-2530 online q 2005 Taylor & Francis Group Ltd. DOI: 10.1080/17402520512331329514 Correspondence: Carl L. Keen, Department of Nutrition, University of California, One Shields Avenue, Davis, CA 95616-8669. Tel: 1 530 752 6331. Fax: 1 530 752 8966. E-mail: clkeen@ucdavis.edu Clinical & Developmental Immunology, March 2005; 12(1): 27-34 These compounds can modulate the actions of oxidant-responsive transcription factor NF-kB (Mackenzie et al. 2004), and diets rich in cocoa flavonoids may be associated with reductions in DNA oxidative damage (Orozco et al. 2003). […]

[1] = plasma flavanol and dimer concentrations by HPLC after cocoa beverage; format: in vivo, human; settings: for time by which detected in the plasma: after consumption of the cocoa beverage, human subjects; for concentration in human plasma reached: after high dose of cocoa (0.50 g/kg BW)
Text: as §1

[2] = antioxidant activity (preliminary, unpublished); settings: preliminary work, unpublished data

| Compound | level of protection compared with ascorbic acid (human erythrocytes) | protection of human erythrocytes from free radical-induced hemolysis at lowest concentration (human erythrocytes) | protection against AAPH-induced erythrocyte hemolysis (human erythrocytes) | protection compared with Dimer B2 (human erythrocytes; individual compounds in vitro) | time by which detected in the plasma [1] [h] | concentration in human plasma reached [1] | antioxidant activity compared with Dimer B2 [2] |
| --- | --- | --- | --- | --- | --- | --- | --- |
| Oc1cc(O)c2c(c1)O[C@H](c1ccc(O)c(O)c1)[C@H](O)C2 [epicatechin, (-)-epicatechin] | exceeded that of ascorbic acid | significantly protect | dose-dependent protection | stronger protection than Dimer B2 | ≤ 1 | 2.86 µM |  |
| O.Oc1cc(O)c2c(c1)O[C@H](c1ccc(O)c(O)c1)[C@@H](O)C2 [catechin] | exceeded that of ascorbic acid | significantly protect | dose-dependent protection |  | ≤ 1 | 210 nm |  |
| Oc1cc(O)c2c(c1)O[C@H](c1ccc(O)c(O)c1)[C@H](O)[C@H]2c1c(O)cc2c(c1O)C[C@@H](O)[C@@H](c1ccc(O)c(O)c1)O2 [Dimer B5, epicatechin-(4b . 6)-epicatechin] |  |  |  |  |  |  | more antioxidant activity than Dimer B2 |
| (-)-epicatechin-(4β > 8)epicatechin [Dimer B2] | exceeded that of ascorbic acid |  | dose-dependent protection |  | ≤ 1 |  |  |
| COc1cc([C@H]2Oc3cc(O)cc(O)c3C[C@H]2O)ccc1O [3ʹ-O-methyl epicatechin] | exceeded that of ascorbic acid | significantly protect | dose-dependent protection |  | ≤ 1 |  |  |
